“Also recorded” adds a separate entry of the source.

We go through one compound from patent US20110306570A1, “Na/K-Atpase Expression as an Indicator for the Treatment of Cancer” (UNIVERSITY OF TOLEDO, priority 2008, published 2011).

Experiment [1] deals with T1, Na/K-ATPase α1 (Sus scrofa, UniProt P05024).
T1 construct: endogenous in cells; host or cells: LLC-PK1 (ATCC) and its caveolin-1 knock-down line C2-9
The experiment can be described thus: Na/K-ATPase α1 degradation with cycloheximide, LLC-PK1 cells. The class given is cell-based, pig. Particulars: cycloheximide pre-treatment, 10 nM ouabain for 6, 16 and 24 h. From the text: Cells without any treatment or only treated with CHX were used as control. The cells were collected at different time points and lysed in RIPA buffer. Equal amount of protein was loaded to analyze the Na/K-ATPase by Western blot. The representative Western blot and the quantification data from 4 experiments were shown. The Na/K-ATPase α1 amount at each time point was normalized against the control at the same time point.

For experiment [2], the target named is T2, Na/K-ATPase α1 (Homo sapiens, UniProt P05023). The experiment can be described thus: Na/K-ATPase α1 expression by Western blot, BT20 cells. The class given is cell-based. Set-up: endogenous in cells; host or cells: BT20, DU145, MDA-MB-435s.
A further experiment has as its system LLC-PK1 cells. In words: MTT cell growth assay, LLC-PK1 cells. Format: cell-based, pig. How it is done: (§1) FIG. 1A: LLC-PK1 cells, BT20 cells, and DU145 cells were subcultured in 96-well plates (10,000 cells/well) and serum starved. […] Cells were solublized by adding 100 μl/well detergent provided by ATCC after 90 min of incubation and OD570 was then measured.
Cell growth was then measured using MTT assay.
(§2) MTT assay for measuring cell proliferation: Cells were sub-cultured in 96 well plates at 10,000 cells/well in 100 μl culture medium. […] Ten μl MTT reagent (3-4,5-dimethylthiazol-2-yl)-2,5-diphenyltetrazolium bromide) was added to each well for 90 min. The formazan crystal was dissolved with detergent and the OD value was measured at 570 nm.
On the technique in general: Tetrazolium assays rely on reduction of a dye to a coloured formazan, in cell work by metabolically active cells.

The next experiment deals with Na/K-ATPase β1. The experiment can be described thus: Na/K-ATPase β1 expression by Western blot, LLC-PK1 cells. Particulars: 10 nM ouabain, 24 h. The class given is cell-based, pig. From the text: Na/K-ATPase, but also in the formation of tight junctions and in suppression of tumor cell growth.
(In western blotting, separated proteins are transferred to a membrane and probed.)

For experiment [3], the system named is Akt. In words: Akt phosphorylation, PY-17 cells. The class given is cell-based, pig. Conditions: ouabain, data not shown.
The subject of the next experiment is C2-9 cells. In words: MTT cell growth assay, caveolin-1 knock-down C2-9 cells. Format: cell-based, pig. Conditions: C2-9 caveolin-1 knockdown cells. The method, then:
as §2

Experiment [4] concerns the target T1, Na/K-ATPase α1. The experiment can be described thus: Na/K-ATPase α1 expression, caveolin-1 knock-down C2-9 cells. The class given is cell-based, pig. Particulars: C2-9 caveolin-1 knockdown cells, 5 and 10 nM ouabain, 72 h.
Experiment [5] deals with T2, Na/K-ATPase α1. In words: Na/K-ATPase α1 endocytosis by confocal immunostaining, BT20 cells. The class given is cell-based. Set-up: endogenous in cells; host or cells: BT20. Particulars: 10 nM ouabain. How it is done:
Na/K-ATPase al was immunostained and visualized using Leica confocal microscope. The red arrows indicate the endocytosed vesicles containing Na/K-ATPase α1.
The cells were fixed with ice-cold methanol for 15 min and blocked with Signal Enhancer from Invitrogen. Monoclonal anti-Na/K-ATPase α1 antibody was then incubated with the cells overnight at 4° C. After 3 washes, a secondary Alexa 488-conjugated anti-mouse antibody was added and incubated for 2 h at room temperature. The coverslip was washed, mounted and imaged using a Leica confocal microscope.

For experiment [6], the target named is T1, Na/K-ATPase α1. The experiment can be described thus: Na/K-ATPase α1 expression by Western blot, LLC-PK1 cells. Format: cell-based, pig. How it is done: FIG. 7A: LLC-PK1 cells were pre-treated with 10 nM rapamycin or 50 μM LY294002 for 30 min. […] The cell lysates were analyzed for Na/K-ATPase α1 using Western blot.
The subject of another experiment is BT20 cells. The experiment can be described thus: MTT cell growth assay, BT20 cells. Particulars: 24 h. Format: cell-based, human. The method, then: as §1, §2
Another experiment deals with PY-17 cells. In words: MTT cell growth assay, Na/K-ATPase knock-down PY-17 cells. The class given is cell-based, pig. The method, then: FIG. 3B: The Na/K-ATPase knock-down cells (PY17) were treated with different digitalis compounds and the cell growth was measured by MTT assay.
as §2

Experiment [7] relates to P-11 cells (control vector-transfected LLC-PK1). In words: MTT cell growth assay, control P-11 cells. Particulars: ouabain 1 to 10 nM, 16 h. Format: cell-based, pig. How it is done:
as §2

Another experiment deals with Na/K-ATPase α1 mRNA. The experiment can be described thus: Na/K-ATPase α1 mRNA by RT-PCR, LLC-PK1 cells. Particulars: 10 nM ouabain, 24 h. Format: cell-based, pig. How it is done:
Total RNA was extracted and applied for RT-PCR to probe Na/K-ATPase α1 as described in the Experimental Procedures section.
Quantitative RT-PCR: The cells were seeded in 6-cm dishes and serum-starved for 24 h after the confluence reached 90%. […] Total RNA was extracted using TRIzol and subjected to quantitative RT-PCR analysis. The assays were performed on the AB 7500 real time PCR system with the following protocol: 1 cycle (6 min at 95° C.), 40 cycles (30 s at 95° C., 30 s at 52° C., 30 s at 72° C., and 1 min at 85° C.), followed by a dissociation stage to ensure a single product. The reactions are in a total volume of 25 μl, including 1.25 µl of Sybr Green (Invitrogen), 0.125 µl of DNA polymerase (Denville), 2.5 µl of dNTP (Invitrogen), 10 ng of cDNA. Primer pairs were used at 5 μM concentration, and the sequences are:
The relative Na/K-ATPase al gene expression was calculated by comparative threshold (CT) method (ΔΔCT). To normalize the difference amounts of cDNA, GAPDH was used as an internal control.

Experiment [8] has as its target T2, Na/K-ATPase α1. In words: Na/K-ATPase α1 degradation with cycloheximide, BT-20 cells. Format: cell-based. Also noted: endogenous in cells; host or cells: BT20. Conditions: cycloheximide pre-treatment, 10 nM ouabain for 6, 16 and 24 h. How it is done:
FIG. 6C: BT20 cells were treated as in panel B and assayed for Na/K-ATPase α1. *p<0.05.

Experiment [9] concerns Akt. In words: Akt phosphorylation (pAkt) by Western blot, DU145 cells. Format: cell-based, human. Conditions: ouabain 15 min. From the text:
The pAkt was probed by Western blot.

The target of experiment [10] is T2, Na/K-ATPase α1. The experiment can be described thus: Na/K-ATPase α1 expression by Western blot, DU145 cells. The class given is cell-based. Conditions: ouabain 24 h or 72 h exposure. Also noted: endogenous in cells; host or cells: BT20, DU145, MDA-MB-435s.

Consider `C[C@@H]1O[C@@H](O[C@H]2C[C@@H](O)[C@]3(CO)[C@H]4[C@H](O)C[C@]5(C)[C@@H](C6=CC(=O)OC6)CC[C@]5(O)[C@@H]4CC[C@]3(O)C2)[C@H](O)[C@H](O)[C@H]1O` [ouabain], for which the “degradation of Na/K-ATPase α1 subunit” value at Na/K-ATPase α1 [1] and at Na/K-ATPase α1 [8] was “more degradation of al subunit; also recorded: more degradation of the a1 subunit” each time. In addition, the “cellular amount of Na/K-ATPase α1” value at Na/K-ATPase α1 [2] (BT20 cells, ouabain 24 h or 72 h exposure) is given as “reduced the cellular amount of α1”; on Na/K-ATPase α1 [10] it was “reduced the cellular amount of α1”. The “Na/K-ATPase α1 expression, 72 h versus 24 h” value on Na/K-ATPase α1 [2] (BT-20 cells, after 72 h of ouabain exposure) is “further reduction in al expression”. Besides, the “cell growth with ouabain in rapamycin pre-treated cells (MTT)” value in the experiment with LLC-PK1 cells (LLC-PK1 cells pre-treated with rapamycin, 10 nM ouabain) is listed as “significant inhibition of cell growth; also recorded: significant inhibition of cell proliferation”. Moreover, the “effect on cell growth (MTT)” value is listed as “stimulated cell growth” with LLC-PK1 cells (LLC-PK1 cells, ouabain 1 to 50 nM, 24 h); “significant inhibition of cell growth” in the experiment with BT20 cells (10-50 nM ouabain); “stimulated the cell growth” in [7]. For the same compound, the “Na/K-ATPase β1 expression” value in the experiment on Na/K-ATPase β1 is “modest increase in β1 expression”. Further, the Akt phosphorylation entry in the experiment with Akt [3] is “no effect on Akt phosphorylation”; with Akt [9], “failed to do so”. For the same compound, the “ouabain-induced cell growth response (MTT)” value in the experiment with C2-9 cells is on record as “abolished ouabain-induced cell growth stimulation”. For the same compound, the “ouabain-induced increases in α1 expression” value at Na/K-ATPase α1 [4] is “completely abolished ouabain-induced increases in α1 expression”. The “endocytosis of Na/K-ATPase α1 (α1-positive vesicles)” value at Na/K-ATPase α1 [5] is listed as “many al-positive vesicles were accumulated”. Besides, the “α1 expression with ouabain in the presence of rapamycin” value at Na/K-ATPase α1 [6] (10 nM rapamycin pre-treatment, 10 nM ouabain 24 h) is “further decrease in the expression of al; also recorded: further decrease in the expression of a1”. The “Na/K-ATPase α1 expression” value on Na/K-ATPase α1 [6] (ouabain 24 h or 72 h exposure) is reported as “induction of α1 expression”. Further, the “stimulatory effect on cell growth (MTT)” value in the experiment with BT20 cells (different concentrations of ouabain) is “failed to detect any stimulatory effect”. Further, the “growth stimulation (MTT)” value in the experiment with PY-17 cells (PY17 cells, ouabain, 16 h) was “No growth stimulation was detected”. The “reduction in cell growth (MTT)” value in the experiment on PY-17 cells (PY-17 cells, 10 nM ouabain) is “more than 30%”. Further, the “levels of α1 mRNA” value with Na/K-ATPase α1 mRNA was “no effect on levels of α1 mRNA”.
